The target of experiment [1] is T1, Tyrosine-protein phosphatase non-receptor type 1 (Homo sapiens, UniProt P18031).
T1 sequence (P18031 whole entry): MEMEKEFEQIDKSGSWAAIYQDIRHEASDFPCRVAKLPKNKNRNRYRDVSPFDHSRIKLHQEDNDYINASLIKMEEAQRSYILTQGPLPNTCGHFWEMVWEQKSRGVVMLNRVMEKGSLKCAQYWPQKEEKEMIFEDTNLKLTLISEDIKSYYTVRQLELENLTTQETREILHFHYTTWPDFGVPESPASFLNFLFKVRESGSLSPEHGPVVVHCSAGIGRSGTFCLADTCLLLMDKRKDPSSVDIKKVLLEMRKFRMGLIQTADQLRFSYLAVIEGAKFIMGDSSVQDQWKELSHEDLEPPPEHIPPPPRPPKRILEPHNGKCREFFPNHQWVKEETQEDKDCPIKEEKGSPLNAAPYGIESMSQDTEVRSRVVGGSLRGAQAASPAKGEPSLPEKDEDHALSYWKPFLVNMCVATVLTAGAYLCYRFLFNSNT
Nature of the experiment: PTP inhibition assay. Conditions: pH 7.2. Here is the method: (§1) The assays were performed in 20 mM MOPS buffer, pH 7.2, containing 50 mM NaCl and 2 mM GSH. Compounds were dissolved in DMSO and diluted to various concentration gradients and further diluted for activity evaluations. Ten microliter of complex was mixed to 82 L enzyme solution for 30 min, followed by addition of 2 L of pNPP (0.1 M) substrate to initiate the reaction. After 30 min at RT, 6 L of 2 M NaOH was added to terminate the reaction. The absorbance was measured at 405 nm.

Experiment [2] addresses T2, Tyrosine-protein phosphatase non-receptor type 11 (Homo sapiens, UniProt Q06124).
T2 sequence (Q06124 whole entry): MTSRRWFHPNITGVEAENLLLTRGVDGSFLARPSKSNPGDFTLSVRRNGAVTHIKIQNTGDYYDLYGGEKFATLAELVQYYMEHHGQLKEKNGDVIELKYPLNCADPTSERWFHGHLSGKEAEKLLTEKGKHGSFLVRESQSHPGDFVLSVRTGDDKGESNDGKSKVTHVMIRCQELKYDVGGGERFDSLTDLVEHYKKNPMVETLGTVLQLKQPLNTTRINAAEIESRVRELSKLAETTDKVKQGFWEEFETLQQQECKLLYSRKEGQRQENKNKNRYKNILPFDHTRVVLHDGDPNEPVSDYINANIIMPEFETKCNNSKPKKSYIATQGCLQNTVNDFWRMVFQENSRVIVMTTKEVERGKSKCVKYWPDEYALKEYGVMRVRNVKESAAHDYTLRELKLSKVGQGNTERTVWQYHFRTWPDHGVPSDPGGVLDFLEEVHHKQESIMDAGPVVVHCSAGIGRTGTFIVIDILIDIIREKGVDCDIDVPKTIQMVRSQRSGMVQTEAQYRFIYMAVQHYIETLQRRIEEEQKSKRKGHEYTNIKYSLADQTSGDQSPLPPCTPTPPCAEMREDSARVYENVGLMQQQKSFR
Nature of the experiment: PTP inhibition assay. Conditions: pH 7.2. Here is the method:
as §1

The target in experiment [3] is T3, Tyrosine-protein phosphatase non-receptor type 2 (Homo sapiens, UniProt P17706).
T3 sequence (P17706 whole entry): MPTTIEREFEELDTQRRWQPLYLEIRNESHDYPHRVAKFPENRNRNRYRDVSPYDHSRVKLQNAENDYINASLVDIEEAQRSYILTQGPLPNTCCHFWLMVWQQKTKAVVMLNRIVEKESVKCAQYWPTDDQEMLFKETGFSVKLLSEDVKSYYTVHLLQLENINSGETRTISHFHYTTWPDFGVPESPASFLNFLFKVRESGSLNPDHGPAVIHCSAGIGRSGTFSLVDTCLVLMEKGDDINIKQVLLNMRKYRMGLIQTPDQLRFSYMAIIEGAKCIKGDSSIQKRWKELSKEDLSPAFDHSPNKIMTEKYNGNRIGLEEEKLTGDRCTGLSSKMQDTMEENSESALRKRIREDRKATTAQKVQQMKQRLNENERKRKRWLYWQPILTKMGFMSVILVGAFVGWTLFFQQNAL
The experiment can be described thus: PTP inhibition assay. Conditions: pH 7.2. Here is the method: as §1

Experiment [4] addresses Tyrosine-protein phosphatase non-receptor type 6 (Homo sapiens, UniProt P29350). The experiment can be described thus: PTP inhibition assay. Conditions: pH 7.2. As for the experimental part:
as §1

For experiment [5], the target named is Tyrosine-protein phosphatase non-receptor type 9 (PTP-MEG2, Homo sapiens) (UniProt P43378). Nature of the experiment: The assays were performed in 20 mM MOPS buffer, pH 7.2, containing 50 mM NaCl and 2 mM GSH. Compounds were dissolved in DMSO and diluted to various concentration gradients and further diluted for activity evaluations. Ten microliter of complex was mixed to 82 L enzyme solution for 30 min, followed by addition of 2 L of pNPP (0.1 M) substrate to initiat.

A word on the IC50: it is the point on the concentration scale where inhibition reaches its midpoint.

Tyrosine-protein phosphatase non-receptor type 9 (PTP-MEG2, Homo sapiens), sequence (P43378 whole entry, looked up): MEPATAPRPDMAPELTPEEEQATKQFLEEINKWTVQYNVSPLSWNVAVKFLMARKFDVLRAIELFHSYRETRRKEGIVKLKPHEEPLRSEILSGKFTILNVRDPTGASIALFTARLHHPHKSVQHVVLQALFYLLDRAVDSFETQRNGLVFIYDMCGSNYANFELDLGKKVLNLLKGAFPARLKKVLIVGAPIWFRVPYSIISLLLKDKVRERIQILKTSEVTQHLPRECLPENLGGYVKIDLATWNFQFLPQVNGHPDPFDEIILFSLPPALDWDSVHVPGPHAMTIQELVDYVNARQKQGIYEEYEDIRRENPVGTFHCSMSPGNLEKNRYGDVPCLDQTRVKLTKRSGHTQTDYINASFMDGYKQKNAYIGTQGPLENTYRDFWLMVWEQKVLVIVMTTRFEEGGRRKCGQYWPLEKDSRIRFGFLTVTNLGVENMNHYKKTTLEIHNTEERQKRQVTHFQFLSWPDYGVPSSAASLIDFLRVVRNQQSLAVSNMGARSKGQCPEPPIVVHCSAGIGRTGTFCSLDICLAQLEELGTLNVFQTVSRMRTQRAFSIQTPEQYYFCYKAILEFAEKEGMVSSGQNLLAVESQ
Tyrosine-protein phosphatase non-receptor type 6, sequence (P29350 whole entry): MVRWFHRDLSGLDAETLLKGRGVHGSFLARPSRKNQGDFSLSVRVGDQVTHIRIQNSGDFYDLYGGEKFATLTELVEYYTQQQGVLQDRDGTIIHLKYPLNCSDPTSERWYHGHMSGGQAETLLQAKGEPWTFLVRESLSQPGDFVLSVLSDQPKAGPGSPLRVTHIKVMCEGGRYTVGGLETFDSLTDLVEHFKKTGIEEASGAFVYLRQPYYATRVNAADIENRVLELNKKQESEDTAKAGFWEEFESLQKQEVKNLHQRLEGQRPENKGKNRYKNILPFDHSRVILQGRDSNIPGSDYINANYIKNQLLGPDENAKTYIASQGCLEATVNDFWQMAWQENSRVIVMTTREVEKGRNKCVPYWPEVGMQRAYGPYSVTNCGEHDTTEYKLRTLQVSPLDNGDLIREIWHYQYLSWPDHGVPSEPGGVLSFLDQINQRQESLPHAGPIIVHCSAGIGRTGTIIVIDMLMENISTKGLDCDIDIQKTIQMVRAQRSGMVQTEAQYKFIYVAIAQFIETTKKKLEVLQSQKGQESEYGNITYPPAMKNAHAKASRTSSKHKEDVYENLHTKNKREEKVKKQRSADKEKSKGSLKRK

As to “Bis(4-bromo-2-((phenylimino)methyl)phenolate)-oxovanadium(IV) (4)”, the half-maximal inhibitory concentration (IC50) is 690 nM in experiment [1]; 35000 nM in experiment [2]; 1900 nM in experiment [3]; 6500 nM in experiment [4]; 2900 nM in experiment [5].

As to “Bis(4-chloro-2-((phenylimino)methyl)phenolate)-oxovanadium(IV) (3)”, the IC50 in experiment [1] was 800 nM; in experiment [2] it was 2300 nM; in experiment [3], 8300 nM; in experiment [4] it was 1000 nM; in experiment [5], 3600 nM.

With “Bis(4-nitro-2-((phenylimino)methyl)phenolate)-oxovanadium(IV) (5)”, the 50% inhibitory concentration (IC50) in experiment [1] was determined as 930 nM; in experiment [2], 2600 nM; in experiment [3], 1400 nM; in experiment [4] it was 2500 nM; in experiment [5], 3200 nM.
